Data published in patent US11987804B2, “Rapamycin resistant cells” (Seattle Children's Hospital, priority 2018, dated 2024).

Tests used:
CD4+ T cells [1] = assay: Regulatory T cell marker phenotype of DISC-expressing edited Treg cells; type: cell-based, human; details: IL-2 50 ng/mL, rapamycin 10 nM or AP21967 100 nM
[2] = system: primary human CD4+ T cells; assay: Three-phase expansion protocol for μDISC edTreg (flow cytometry HA/FOXP3, cell counts); type: cell-based; details: for Day-3 flow cytometry Q4 / Day-10 flow cytometry Q3 / Day-10 flow cytometry Q4 / Day-15 flow cytometry Q4: Expansion Phase 0 additive 50 μg/mL IL-2, 10 nM rapamycin or 100 nM AP21967; for Day-3 flow cytometry Q1 / Day-10 flow cytometry Q1 / Day-15 flow cytometry Q1: Q1 = HA- FOXP3+; for Day-10 flow cytometry Q3 / Day-10 flow cytometry Q4 / Day-10 flow cytometry Q1: after Expansion Phase 1; for Day-15 flow cytometry Q4 / Day-15 flow cytometry Q3 / Day-15 flow cytometry Q1: after Expansion Phase 2
Procedure: Recovered cells after Expansion Phase 0 were then transferred to the G-Rex flask and expanded in rapamycin (Expansion Phase 1; Days 3-10) to allow DISC edTreg enrichment, followed by addition of anti-CD3/CD28 beads (Expansion Phase 2; Days 10-15). The same AAV construct as shown in FIG. 13A was used in this experiment.
After Expansion Phase 1 (Day 10), successfully edited cells were assessed by flow cytometry.

CD4+ T cells [3] = assay: Selective expansion of DISC/HA-FOXP3 edited Treg cells (flow cytometry for HA tag and FOXP3); type: cell-based, human; details: 50 ng/mL IL-2, 10 nM Rapamycin or 100 nM AP21967
Text: This Example illustrates the use of gene editing technology to knock-in a construct encoding the DISC and a promoter upstream of the endogenous FOXP3 (Forkhead box P3) locus in CD4+ T cells. […] In brief, a CRISPR/CAS9 ribonucleoprotein containing a guide RNA (gRNA) specific for a locus 5′ of exon 1 of FOXP3 was used in combination with an adeno-associated virus 6 (AAV6) donor template for FOXP3 gene editing The gRNA included a spacer having the sequence of SE ID NO:58. An ectopic MND promoter was introduced to drive DISC expression upstream of endogenous FOXP3. Expression of FOXP3 was designed to be in-frame with an N-terminal hemagglutinin (HA) epitope tag and nuclear localization sequence to generate a chimeric protein.

μDISC GFP edTreg = assay: In vivo expansion of μDISC GFP edTreg by rapamycin in humanized mouse model; parameters: species or system NOD-scid-IL2RgNULL (NSG) mice; details: for CD25+ GFP+ edTreg cells / CD25− GFP+ edTreg cells / CD127+ GFP+ edTreg cells / CD127− GFP+ edTreg cells: peripheral blood seven days post-transfer, rapamycin 0.1 mg/kg i.p. every other day, representative mouse
Procedure: This Example describes experiments performed to test the capacity of edTreg cells expressing a μDISC construct to be expanded in vivo by rapamycin treatment. […] There are also conditions under which it is not desirable to expand Tregs, for example, in some cases of infection. Therefore, a useful feature of engineered cells provided herein having Treg features is the ability to exert control on expansion in vivo. Experiments were carried out to determine whether rapamycin could increase the number of μDISC edTregs in vivo using a humanized mouse model, which included human cells transferred into immune-incompetent NOD-scid-IL2RgNULL (NSG) mice. For these experiments, cells were edited using an AAV donor to drive cis-linked expression of the μDISC and endogenous FOXP3 from the MND promoter. This AAV donor template incorporates a GFP fusion protein at the N-terminal of endogenous FOXP3. The GFP-labeled FOXP3 fusion protein was used to facilitate the ability to detect gene-edited cells within the in vivo cell samples. […] The beads were then removed at Day −1. […] In the three-phase expansion protocol used in this experiment, the timing of Expansion Phase 0 flow cytometry was on Day 2. Recovered cells after Expansion Phase 0 were then transferred to the G-rex® flask and expanded in the presence of 10 nM rapamycin to select edited cells (Expansion Phase 1; Days 3-9) and to allow DISC edTreg enrichment, followed by flow cytometry and addition of anti-CD3/CD28 beads (Expansion Phase 2; Days 9-16; in the presence of 10 nM rapamycin). Flow cytometry was performed at Days 2, 9, 12, and 16 to monitor edited GFP+FOXP3+ cell expansion.
NSG mice were pre-treated with rapamycin in order to saturate rapamycin binding proteins and provide rapamycin in serum.
The μDISC GFP edTregs (or mock-edited cells) were then injected i.v. according to the following general procedure. Starting from Day −4, intraperitoneal (i.p.) injection of rapamycin 0.1 mg/kg was carried out every other day until Day 21. At Day 0, irradiation was performed and μDISC edTreg was i.v. injected. Peripheral blood samples were collected to either test for rapamycin levels (Day 2) or for flow cytometry (Days 7, 14, 21, and 28) to track the phenotype and number of transferred human T cells including GFP+ edTreg cells.
To illustrates expansion of μDISC GFP edTreg in rapamycin treated vs. vehicle, flow cytometry results from peripheral blood seven days post-transfer into NSG are shown in Table 11 below (Gate: live, hCD45+, hCD4+), where human T cell markers and GFP+ are shown for a representative mouse from each cohort.

[4] = Expansion Phase 0 additive, 10 nM rapamycin or 100 nM AP21967
[5] = peripheral blood Day 7 and Day 14, rapamycin treated vs. vehicle

SMILES	CD25+ FOXP3+ (CD4+ T cells [1]) [%]	CD25+ FOXP3− (CD4+ T cells [1]) [%]	CD 127+ FOXP3+ (CD4+ T cells [1]) [%]	CD 127+ FOXP3− (CD4+ T cells [1]) [%]	CTLA4+ FOXP3+ (CD4+ T cells [1]) [%]	CTLA4+ FOXP3− (CD4+ T cells [1]) [%]	ICOS+ FOXP3+ (CD4+ T cells [1]) [%]	ICOS+ FOXP3− (CD4+ T cells [1]) [%]	LAG3+ FOXP3+ (CD4+ T cells [1]) [%]	LAG3+ FOXP3− (CD4+ T cells [1]) [%]	Day-3 flow cytometry Q4 [2] [%]	Day-3 flow cytometry Q3 [2, 4] [%]	Day-3 flow cytometry Q1 [2, 4] [%]	Day-10 flow cytometry Q3 [2] [%]	Day-10 flow cytometry Q4 [2] [%]	Day-10 flow cytometry Q1 [2, 4] [%]	Day-15 flow cytometry Q4 [2] [%]	Day-15 flow cytometry Q3 [2, 4] [%]	Day-15 flow cytometry Q1 [2, 4] [%]	percentage of double positive cells (expressing HA-FOXP3), DISC/HA-FOXP3 (CD4+ T cells [3]; 7 day post-treatment) [%]	other results
CO[C@H]1[C@@H](O)[C@H](C)C[C@H](C)/C=C/C=C/C=C(\C)[C@@H](c2c[nH]c3c(C)cccc23)C[C@@H]2CC[C@@H](C)[C@@](O)(O2)C(=O)C(=O)N2CCCC[C@H]2C(=O)O[C@H]([C@H](C)C[C@@H]2CC[C@@H](O)[C@H](OC)C2)C[C@H](O)[C@H](C)/C=C(\C)[C@H]1O [AP21967, C-16-(S)-7-methylindolerapamycin]	22.5	20.4	1.63	40.3	13.6	30.8	36.8	2.99	8.81	31.5	86.00	1.74	0.39	5.54	13.3	0.59	10.7	4.93	0.33	45.7	Day-3 flow cytometry Q2 ([2]; Q2 = HA+ FOXP3+ successfully edited cells, Expansion Phase 0 additive, 10 nM rapamycin or 100 nM AP21967): 11.90%; percentage of double positive cells (expressing HA-FOXP3), Mock (CD4+ T cells [3]; 7 day post-treatment): 0.033%; percentage of double positive cells (expressing HA-FOXP3), DISC/HA-FOXP3 (CD4+ T cells [3]; 15 day post-treatment): 82.1%
CO[C@H]1C[C@@H]2CC[C@@H](C)[C@@](O)(O2)C(=O)C(=O)N2CCCC[C@H]2C(=O)O[C@H]([C@H](C)C[C@@H]2CC[C@@H](O)[C@H](OC)C2)CC(=O)[C@H](C)/C=C(\C)[C@@H](O)[C@@H](OC)C(=O)[C@H](C)C[C@H](C)/C=C/C=C/C=C/1C [Rapamycin, (3S,6R,7E,9R,10R,12R,14S,15E,17E,19E,21S,23S,26R,27R,34aS)-9,10,12,13,14,21,22,23,24,25,26,27,32,33,34,34a-hexadecahydro-9,27-dihydroxy-3-[(1R)-2-[(1S,3R,4R)-4-hydroxy-3-methoxycyclohexyl]-1-methylethyl]-10,21-dimethoxy-6,8,12,14,20,26-hexamethyl-23,27-epoxy-3H-pyrido[2,1-c][1,4] oxaazacyclohentriacontine-1,5,11,28,29 (4H,6H,31H)-pentone]	28.9	14.5	1.47	40.8	15.5	29.4	38.2	2.38	7.86	33.3	91.70	1.48	0.38	9.31	20.1	0.44	15.7	7.56	1.08	47.6	CD25+ GFP+ edTreg cells (μDISC GFP edTreg; No Radiation): 79.9%; CD25− GFP+ edTreg cells (μDISC GFP edTreg; No Radiation): 8.37%; CD127+ GFP+ edTreg cells (μDISC GFP edTreg; No Radiation): 0.57; CD127− GFP+ edTreg cells (μDISC GFP edTreg; No Radiation): 88.2; CD25+ GFP+ edTreg cells (μDISC GFP edTreg; Radiation (200 Gy), gate live, hCD45+, hCD4+): 82.6%; CD25− GFP+ edTreg cells (μDISC GFP edTreg; Radiation (200 Gy)): 5.52%; CD127− GFP+ edTreg cells (μDISC GFP edTreg; Radiation (200 Gy)): 87.6; CD127+ GFP+ edTreg cells (μDISC GFP edTreg; Radiation): 0.50; number of GFP+ cells in serum sample (μDISC GFP edTreg; [5]): higher; percentage of GFP+ cells (μDISC GFP edTreg; [5]): higher; levels of μDISC GFP edTreg in the peripheral blood (FIG. 17) (μDISC GFP edTreg; tracked weekly for four weeks, rapamycin treated vs. untreated mice): higher levels of μDISC GFP edTreg at each time point, peaking between two and three weeks after cell transfer; percentage of double positive cells (expressing HA-FOXP3), Mock (CD4+ T cells [3]; 7 day post-treatment): 0.022%; percentage of double positive cells (expressing HA-FOXP3), DISC/HA-FOXP3 (CD4+ T cells [3]; 15 day post-treatment): 85.6%
